Results: patent publication US9983218B2, “Indole and indoline derivatives and methods of use thereof” (AbbVie Inc., priority 2008, dated 2018)

Tested on: SK-N-SH human neuroblastoma cells
Assay: Serum deprivation/JC-1 mitochondrial membrane potential (MMP) assay
Format: cell-based
Conditions: Homo sapiens; for Emax: SK-N-SH, percent maximal intensity in JC-1 ratio normalized to 10 μM dimebolin, read-out: JC-1 max %; for EC50: SK-N-SH cells, serum deprivation ~18 hours, JC-1 ratio normalized to peak value for 10 μM dimebolin, single curve fit to mean data of n=2-3, read-out: EC50
Method in brief: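 Cells were serum-deprived ~18 h in MEM with or without compound (DMSO ≤1%), then stained with JC-1 for 35 min at 37° C. The red/green fluorescence ratio (560/595 vs 485/535 nm) was normalized to the peak response of 10 μM dimebolin. EC50 came from one curve fit to mean data (n=2-3, duplicates).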

Row | SMILES | Emax | EC50
1 | Fc1ccc2c(c1)c1c(n2Cc2ccccn2)C2CCN(CC2)C1 [Example 184, 9-fluoro-6-(pyridin-2-ylmethyl)-3,4,5,6-tetrahydro-1H-2,5-ethanoazepino[4,3-b]indole] | 175% | 10.7 µM
2 | Fc1ccc2c(c1)c1c(n2Cc2cccnc2)C2CCN(CC2)C1 [Example 185, 9-fluoro-6-(pyridin-3-ylmethyl)-3,4,5,6-tetrahydro-1H-2,5-ethanoazepino[4,3-b]indole] | 184% | 8.58 µM
3 | Fc1ccc2c(c1)c1c(n2Cc2ccncc2)C2CCN(CC2)C1 [Example 186, 9-fluoro-6-(pyridin-4-ylmethyl)-3,4,5,6-tetrahydro-1H-2,5-ethanoazepino[4,3-b]indole] | 93% | 14.6 µM
4 | c1ccc(Cn2c3c(c4ccccc42)CN2CCC3CC2)nc1 [Example 187, 6-[(pyridin-2-yl)methyl]-3,4,5,6-tetrahydro-1H-2,5-ethanoazepino[4,3-b]indole] | 110% | 9.37 µM
5 | c1cncc(Cn2c3c(c4ccccc42)CN2CCC3CC2)c1 [Example 188, 6-(pyridin-3-ylmethyl)-3,4,5,6-tetrahydro-1H-2,5-ethanoazepino[4,3-b]indole] | 96% | 6.52 µM
6 | c1ccc2c(c1)c1c(n2Cc2ccncc2)C2CCN(CC2)C1 [Example 189, 6-[(pyridin-4-yl)methyl]-3,4,5,6-tetrahydro-1H-2,5-ethanoazepino[4,3-b]indole] | 107% | 11.3 µM
7 | FC12CC3CC(CN(C3)C1)c1c2c2ccccc2n1Cc1ccc(Cl)nc1 (stereo not shown) [Example 190, 8-[(6-chloropyridin-3-yl)methyl]-1-fluoro-1,4,5,6,7,8-hexahydro-2H-1,5:3,7-dimethanoazonino[5,4-b]indole] | 175% | 5.06 µM
8 | Fc1ccc2c(c1)c1c(n2Cc2ccnc(F)c2)C2CCN(CC2)C1 [Example 191, 9-fluoro-6-[(2-fluoropyridin-4-yl)methyl]-3,4,5,6-tetrahydro-1H-2,5-ethanoazepino[4,3-b]indole] | 112% | 7.04 µM
9 | Cc1ccc2c(c1)c1c(n2CCc2ccc(Cl)nc2)C2CC3CC1CN(C3)C2 (stereo not shown) [Example 196, 8-[2-(6-chloropyridin-3-yl)ethyl]-11-methyl-1,4,5,6,7,8-hexahydro-2H-1,5:3,7-dimethanoazonino[5,4-b]indole] | 182% | 3.91 µM
10 | Cc1ccc2c(c1)c1c(n2CCc2ccccc2C)C2CC3CC1CN(C3)C2 (stereo not shown) [Example 197, 11-methyl-8-[2-(2-methylphenyl)ethyl]-1,4,5,6,7,8-hexahydro-2H-1,5:3,7-dimethanoazonino[5,4-b]indole] | 173% | 5.63 µM
11 | Cc1ccc2c(c1)c1c(n2CCc2ccc(C)nc2)C2CCCN(C1)C2 (stereo not shown) [Example 202, 10-methyl-7-[2-(6-methylpyridin-3-yl)ethyl]-1,3,4,5,6,7-hexahydro-2,6-methanoazocino[4,3-b]indole] | 239% | 3.07 µM
12 | Cc1ccc2c(c1)c1c(n2CCc2ccccc2C)C2CCCN(C1)C2 (stereo not shown) [Example 203, 10-methyl-7-[2-(2-methylphenyl)ethyl]-1,3,4,5,6,7-hexahydro-2,6-methanoazocino[4,3-b]indole] | 159% | 4.53 µM
13 | Cc1ccc2c(c1)c1c(n2CCc2ccc(Cl)cc2)C2CCCN(C1)C2 (stereo not shown) [Example 204, 7-[2-(4-chlorophenyl)ethyl]-10-methyl-1,3,4,5,6,7-hexahydro-2,6-methanoazocino[4,3-b]indole] | 182% | 3.23 µM
14 | Cc1ccc2c(c1)c1c(n2S(=O)(=O)c2ccc(Cl)cc2)C2CCN1CC2 [Example 215, 5-[(4-chlorophenyl)sulfonyl]-8-methyl-2,3,4,5-tetrahydro-1,4-ethanopyrido[3,2-b]indole] | 196% | 3.34 µM
15 | Cc1ccc2c(c1)c1c(n2-c2ccc3ccncc3c2)C2CCN(CC2)C1 [Example 216, 6-isoquinolin-7-yl-9-methyl-3,4,5,6-tetrahydro-1H-2,5-ethanoazepino[4,3-b]indole] | 284% | 4.2 µM
16 | Cc1ccc2c(c1)c1c(n2-c2ccc3ncccc3c2)C2CCN(CC2)C1 [Example 217, 9-methyl-6-quinolin-6-yl-3,4,5,6-tetrahydro-1H-2,5-ethanoazepino[4,3-b]indole] | 182% | 2.94 µM
17 | Cc1ccc2c(c1)c1c(n2-c2ccc3ncncc3c2)C2CCN(CC2)C1 [Example 219, 9-methyl-6-quinazolin-6-yl-3,4,5,6-tetrahydro-1H-2,5-ethanoazepino[4,3-b]indole] | 201% | 3.07 µM
18 | Cc1ccc2c(c1)c1c(n2-c2ccc3ccccc3n2)C2CCN(CC2)C1 [Example 222, 9-methyl-6-quinolin-2-yl-3,4,5,6-tetrahydro-1H-2,5-ethanoazepino[4,3-b]indole] | 215% | 4.43 µM

Row | SMILES | Emax | EC50
19 | Fc1ccc2c(c1)c1c(n2-c2ccc3ccncc3c2)C2CCN(CC2)C1 [Example 223, 9-fluoro-6-isoquinolin-7-yl-3,4,5,6-tetrahydro-1H-2,5-ethanoazepino[4,3-b]indole] | 287% | 3.84 µM
20 | Fc1ccc2c(c1)c1c(n2-c2ccc3ccccc3n2)C2CCN(CC2)C1 [Example 224, 9-fluoro-6-quinolin-2-yl-3,4,5,6-tetrahydro-1H-2,5-ethanoazepino[4,3-b]indole] | 215% | 3.17 µM
21 | Fc1ccc2c(c1)c1c(n2-c2cccc(-n3cccn3)n2)C2CCN(CC2)C1 [Example 225, 9-fluoro-6-[6-(1H-pyrazol-1-yl)pyridin-2-yl]-3,4,5,6-tetrahydro-1H-2,5-ethanoazepino[4,3-b]indole] | 209% | 2.74 µM
22 | Fc1ccc2c(c1)c1c(n2-c2ccc3cccnc3c2)C2CCN(CC2)C1 [Example 226, 9-fluoro-6-quinolin-7-yl-3,4,5,6-tetrahydro-1H-2,5-ethanoazepino[4,3-b]indole] | 307% | 1.68 µM
23 | Fc1ccc2c(c1)c1c(n2-c2ccc3ncncc3c2)C2CCN(CC2)C1 [Example 227, 9-fluoro-6-quinazolin-6-yl-3,4,5,6-tetrahydro-1H-2,5-ethanoazepino[4,3-b]indole] | 266% | 3.62 µM
24 | Cc1ccc2cc(-n3c4c(c5ccccc53)CN3CCC4CC3)ccc2n1 [Example 232, 6-(2-methylquinolin-6-yl)-3,4,5,6-tetrahydro-1H-2,5-ethanoazepino[4,3-b]indole] | 220% | 0.81 µM
25 | c1cnc2ccc(-n3c4c(c5ccccc53)CN3CCC4CC3)cc2c1 [Example 233, 6-quinolin-6-yl-3,4,5,6-tetrahydro-1H-2,5-ethanoazepino[4,3-b]indole] | 250% | 0.8 µM
26 | c1cnc2cc(-n3c4c(c5ccccc53)CN3CCC4CC3)ccc2c1 [Example 234, 6-quinolin-7-yl-3,4,5,6-tetrahydro-1H-2,5-ethanoazepino[4,3-b]indole] | 281% | 1.27 µM
27 | c1ccc2nc(-n3c4c(c5ccccc53)CN3CCC4CC3)ccc2c1 [Example 235, 6-quinolin-2-yl-3,4,5,6-tetrahydro-1H-2,5-ethanoazepino[4,3-b]indole] | 252% | 3.96 µM
28 | c1cc(-n2cccn2)nc(-n2c3c(c4ccccc42)CN2CCC3CC2)c1 [Example 236, 6-[6-(1H-pyrazol-1-yl)pyridin-2-yl]-3,4,5,6-tetrahydro-1H-2,5-ethanoazepino[4,3-b]indole] | 268% | 1.74 µM
29 | CN1CCN(c2ccc(-n3c4c(c5ccccc53)CN3CCC4CC3)cc2)CC1 [Example 237, 6-[4-(4-methylpiperazin-1-yl)phenyl]-3,4,5,6-tetrahydro-1H-2,5-ethanoazepino[4,3-b]indole] | 174% | 2.48 µM
30 | O=c1cccnn1CCn1c2c(c3cc(F)ccc31)CN1CCC2CC1 [Example 238, 2-[2-(9-fluoro-1,3,4,5-tetrahydro-6H-2,5-ethanoazepino[4,3-b]indol-6-yl)ethyl]pyridazin-3(2H)-one] | 86.5% | 11.6 µM
31 | CC1CCCN1c1ccc(Cn2c3c(c4cc(F)ccc42)CN2CCC3CC2)cn1 (stereo not shown) [Example 240, 9-fluoro-6-{[6-(2-methylpyrrolidin-1-yl)pyridin-3-yl]methyl}-3,4,5,6-tetrahydro-1H-2,5-ethanoazepino[4,3-b]indole] | 170% | 3.33 µM
32 | Fc1ccc2c(c1)c1c(n2Cc2ccc(N3CCCCC3)nc2)C2CCN(CC2)C1 [Example 241, 9-fluoro-6-{[6-(piperidin-1-yl)pyridin-3-yl]methyl}-3,4,5,6-tetrahydro-1H-2,5-ethanoazepino[4,3-b]indole] | 156% | 7.96 µM
33 | CC(C)N(C)c1ccc(Cn2c3c(c4cc(F)ccc42)CN2CCC3CC2)cn1 [Example 242, 5-[(9-fluoro-1,3,4,5-tetrahydro-6H-2,5-ethanoazepino[4,3-b]indol-6-yl)methyl]-N-isopropyl-N-methylpyridin-2-amine] | 169% | 8.12 µM
34 | CN(CC1OCCO1)c1ccc(Cn2c3c(c4cc(F)ccc42)CN2CCC3CC2)cn1 [Example 243, N-(1,3-dioxolan-2-ylmethyl)-5-[(9-fluoro-1,3,4,5-tetrahydro-6H-2,5-ethanoazepino[4,3-b]indol-6-yl)methyl]-N-methylpyridin-2-amine] | 169% | 8.36 µM
35 | Fc1ccc2c(c1)c1c(n2Cc2ccc(N3CCCC3)nc2)C2CCN(CC2)C1 [Example 244, 9-fluoro-6-{[6-(pyrrolidin-1-yl)pyridin-3-yl]methyl}-3,4,5,6-tetrahydro-1H-2,5-ethanoazepino[4,3-b]indole] | 226% | 5.65 µM
